# Test results taken from patent publication US4764508A, “Complexes of flavanolignans with phospholipids, preparation thereof and associated pharmaceutical compositions” (Inverni Della Beffa S.p.A., priority 1985, dated 1988).
# How the values were obtained:
# [1] = in vivo, po
# Source text: phosphatidylcholine complex in the rat, after oral administration.
# [2] = system: liver poisoning with carbon tetrachloride; experiment: Anti-hepatotoxic activity of silybin and of 1:1 silybin-phosphatidylcholine complex in the rat, after poisoning with carbon tetrachloride; format: in vivo; conditions: oral; for reduction in GOT and GPT (in words): carbon tetrachloride, equimolecular doses; for GOT: poisoned controls 339.40 ± 59.07; for GOT, % change (in brackets) / GPT, % change (in brackets): versus poisoned controls
# [3] = Pharmacokinetic comparison between equimolar doses of silybin and of 1:1 silybin-phosphatidylcholine complex in the rat, after oral administration
# [4] = conclusion from literature reports; cited from earlier work
# [5] = Solubility in chloroform, ethyl ether or benzene
# [6] = Pharmacokinetic comparison between equimolar doses of silybin and of 1:1 silybin:phosphatidylcholine complex in man, oral administration; conditions: 0.00 = below sensitivity of the method (35 ng/ml)
# [7] = silybin 25 mg/kg, complex 65.8 mg/kg (equivalent to 25 mg silybin), poisoned controls 145.40 ± 31.43
# [8] = silybin 25 mg/kg, complex 65.8 mg/kg (equivalent to 25 mg silybin)
# [9] = silybin 25 mg/kg, complex 65.8 mg/kg
# [10] = silybin 250 mg/kg (P < .05), complex 658 mg/kg (equivalent to 250 mg silybin; P < .01)
# [11] = silybin 250 mg/kg, complex 658 mg/kg (equivalent to 250 mg silybin), poisoned controls 145.40 ± 31.43, °° P < .01
# [12] = silybin 250 mg/kg, complex 658 mg/kg
Compound,reduction in GOT and GPT (in words) [2],"GPT [2, 7]","GOT [2, 8]","GOT, % change (in brackets) [2, 9]","GPT, % change (in brackets) [2, 9]","GOT [2, 10]","GPT [2, 11]","GOT, % change (in brackets) [2, 12]","GPT, % change (in brackets) [2, 12]",also measured
1:1 Silybin/soy phosphatidylcholine complex [1:1 silybin-phosphatidylcholine complex],significant reduction,65.90 U/L,181.80 U/L,-46.4%,-54.7%,148.10 U/L,46.90 U/L,-56.4%,-67.8%,absorption in the rat (in words) [1]: markedly in favour of the complexed form
"COc1cc(C2Oc3cc([C@H]4Oc5cc(O)cc(O)c5C(=O)[C@@H]4O)ccc3OC2CO)ccc1O (stereo partly drawn) [Silybin, silybin]",only a slight reduction,94.30 U/L,252.60 U/L,-25.6%,-35.2%,200.00 U/L,94.90 U/L,-41.1%,-34.8%,"concentration at 0.25 h ([3]; in vivo, po, 200 mg/kg): 70 ng/mL; concentration at 0.5 h ([3]; in vivo, po, 200 mg/kg): 60 ng/mL; concentration at 1 h ([3]; in vivo, po, 200 mg/kg): 110 ng/mL; concentration at 2 h ([3]; in vivo, po, 200 mg/kg): 50 ng/mL; concentration at 3 h ([3]; in vivo, po, 200 mg/kg): 50 ng/mL; concentration at sampling time 4.00 h ([3]; oral, complex 520 mg/kg (equivalent to 200 mg/kg silybin), silybin 200 mg/kg, 4.00 h, 0.00 = nondeterminable, below limit of 0.05 mcg/ml): 0 ng/mL; concentration at sampling time 6.00 h ([3]; oral, complex 520 mg/kg (equivalent to 200 mg/kg silybin), silybin 200 mg/kg, 6.00 h, 0.00 = nondeterminable, below limit of 0.05 mcg/ml): 0 ng/mL; oral bioavailability (in words) [4]: does not have really high or adequate bioavailability; solubility in chloroform, ethyl ether or benzene [5]: insoluble; concentration at sampling time 0.25 h ([6]; complex 700, silybin 270, 0.25 h): 0.00 ng/mL; concentration at sampling time 0.50 h ([6]; complex 700, silybin 270, 0.50 h): 0.00 ng/mL; concentration at sampling time 1.00 h ([6]; complex 700, silybin 270, 1.00 h): 0.00 ng/mL; concentration at sampling time 2.00 h ([6]; complex 700, silybin 270, 2.00 h): 0.00 ng/mL; concentration at sampling time 3.00 h ([6]; complex 700, silybin 270, 3.00 h): 0.00 ng/mL; concentration at sampling time 4.00 h ([6]; complex 700, silybin 270, 4.00 h): 0.00 ng/mL; concentration at sampling time 6.00 h ([6]; complex 700, silybin 270, 6.00 h): 0.00 ng/mL; concentration at sampling time 8.00 h ([6]; complex 700, silybin 270, 8.00 h): 0.00 ng/mL"
